# Test results reported in patent US12581252B2, “Substituted pyrrolo[3,4-b]pyridines as PI3K-α inhibitors” (Relay Therapeutics, Inc., priority 2020, dated 2026).
# Target: H1047R PIK3CA enzyme (Homo sapiens, UniProt P42336, H1047R)
# Experiment: ADP-Glo Biochemical PIK3CA Kinase Assay
# Sequence of H1047R PIK3CA enzyme (P42336 whole entry H1047R): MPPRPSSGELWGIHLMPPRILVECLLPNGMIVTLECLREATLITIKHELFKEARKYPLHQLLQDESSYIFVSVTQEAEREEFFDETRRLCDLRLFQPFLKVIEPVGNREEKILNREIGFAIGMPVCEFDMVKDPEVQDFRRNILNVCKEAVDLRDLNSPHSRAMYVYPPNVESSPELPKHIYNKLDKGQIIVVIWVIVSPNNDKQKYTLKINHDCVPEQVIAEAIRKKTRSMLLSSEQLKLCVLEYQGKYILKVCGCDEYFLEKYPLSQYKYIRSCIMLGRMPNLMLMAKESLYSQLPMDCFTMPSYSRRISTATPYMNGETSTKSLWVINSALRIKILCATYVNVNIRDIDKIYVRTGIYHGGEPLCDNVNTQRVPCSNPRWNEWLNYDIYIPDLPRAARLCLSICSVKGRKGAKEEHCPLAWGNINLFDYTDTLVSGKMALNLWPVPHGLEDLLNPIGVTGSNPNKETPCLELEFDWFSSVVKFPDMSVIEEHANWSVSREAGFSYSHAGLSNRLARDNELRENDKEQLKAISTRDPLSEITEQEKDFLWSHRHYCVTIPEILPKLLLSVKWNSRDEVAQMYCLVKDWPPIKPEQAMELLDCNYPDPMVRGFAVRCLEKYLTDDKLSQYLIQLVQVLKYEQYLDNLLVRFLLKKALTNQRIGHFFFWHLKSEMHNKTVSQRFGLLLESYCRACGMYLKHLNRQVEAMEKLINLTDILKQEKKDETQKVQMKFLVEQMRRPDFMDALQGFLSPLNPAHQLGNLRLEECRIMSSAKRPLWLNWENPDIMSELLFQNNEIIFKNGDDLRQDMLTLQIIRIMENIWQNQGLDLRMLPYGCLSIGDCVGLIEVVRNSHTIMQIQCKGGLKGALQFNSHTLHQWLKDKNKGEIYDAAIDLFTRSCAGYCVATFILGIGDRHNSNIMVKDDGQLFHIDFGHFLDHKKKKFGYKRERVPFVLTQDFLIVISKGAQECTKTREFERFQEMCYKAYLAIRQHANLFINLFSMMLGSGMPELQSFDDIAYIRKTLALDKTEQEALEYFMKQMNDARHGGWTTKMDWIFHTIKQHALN
# Sequence of H1047R PIK3CA enzyme (P27986 whole entry partner): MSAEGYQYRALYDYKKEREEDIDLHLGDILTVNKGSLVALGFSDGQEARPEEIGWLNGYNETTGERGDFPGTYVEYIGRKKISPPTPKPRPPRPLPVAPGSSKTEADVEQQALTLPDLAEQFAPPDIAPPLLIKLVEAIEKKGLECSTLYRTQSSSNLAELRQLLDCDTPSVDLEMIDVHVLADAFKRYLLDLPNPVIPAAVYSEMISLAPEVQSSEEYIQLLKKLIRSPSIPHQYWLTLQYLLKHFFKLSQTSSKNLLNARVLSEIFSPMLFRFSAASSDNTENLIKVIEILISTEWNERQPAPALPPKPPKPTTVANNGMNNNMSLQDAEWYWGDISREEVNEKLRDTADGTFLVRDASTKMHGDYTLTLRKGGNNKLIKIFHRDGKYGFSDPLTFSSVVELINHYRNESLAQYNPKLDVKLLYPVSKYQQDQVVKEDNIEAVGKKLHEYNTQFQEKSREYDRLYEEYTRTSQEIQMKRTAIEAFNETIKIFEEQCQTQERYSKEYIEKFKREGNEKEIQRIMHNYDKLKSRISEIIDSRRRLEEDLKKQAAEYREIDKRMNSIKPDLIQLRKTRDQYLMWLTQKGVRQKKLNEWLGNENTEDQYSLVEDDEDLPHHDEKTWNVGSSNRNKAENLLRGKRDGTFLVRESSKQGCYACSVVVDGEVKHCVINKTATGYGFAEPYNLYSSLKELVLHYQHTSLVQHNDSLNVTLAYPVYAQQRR
row,Compound,IC50 [nM]
1,"O=C1N[C@@H](c2cc(F)ccc2Cl)c2c(NC(=O)N3C[C@H](O)c4cc(F)ccc43)cc(-n3nccn3)cc21 (single isomer, unassigned) [Compound I-2343]",1000 to 10000
2,O=C(Nc1cc(C2CC23CC3)cc2c1C(c1cc(F)ccc1Cl)NC2=O)c1cc(F)cc(C(F)(F)F)c1 (centres unmarked) [Compound I-1266],≤ 100
3,CS(=O)(=O)c1ccccc1-c1cc(NC(=O)c2cc(F)cc(C(F)(F)F)c2)c2c(c1)C(=O)NC2c1cc(F)ccc1Cl (centres unmarked) [Compound I-1195],≤ 100
4,N#Cc1cnn2ccc(-c3cc(NC(=O)c4cc(F)cc(C(F)(F)F)c4)c4c(c3)C(=O)N[C@H]4c3cc(F)ccc3Cl)cc12 [Compound I-1799],≤ 100
5,Cn1nccc1C(=O)c1cc(NC(=O)c2cc(F)cc(C(F)(F)F)c2)c2c(c1)C(=O)NC2c1cc(F)ccc1Cl (centres unmarked) [Compound I-1380],≤ 100
6,O=C1NC(c2cc(F)ccc2Cl)c2c(Nc3n[nH]c4ccccc34)cc(Br)cc21 (centres unmarked) [Compound I-1315],10000 to 100000
7,COc1ncc(-c2cc(NC(=O)c3cc(F)cc(C(F)(F)F)c3)c3c(c2)C(=O)N[C@@H]3c2cc(F)ccc2Cl)cn1 [Compound I-881],1000 to 10000
8,"O=C1N[C@@H](c2cc(F)ccc2Cl)c2c(NC(=O)[C@H]3C[C@@H](O)C[C@@H](C(F)(F)F)C3)cc(Br)cc21 (single isomer, unassigned) [Compound I-2273]",10000 to 100000
9,CC(=O)N1CC2(C1)CN(c1cc(NC(=O)c3cc(F)cc(C(F)(F)F)c3)c3c(c1)C(=O)NC3c1cc(F)ccc1Cl)C2 (centres unmarked) [Compound I-1301],100 to 500
10,N#Cc1cc(-c2ccc(=O)[nH]c2)cc2c1C(c1cc(F)ccc1Cl)NC2=O (centres unmarked) [Compound I-2089],10000 to 100000
11,O=C(Nc1cc(C2CCOC2)cc2c1C(c1cc(F)ccc1Cl)NC2=O)c1cc(F)cc(C(F)(F)F)c1 (racemic) [Compound I-778],≤ 100
12,O=C(Nc1cc(N2CC(F)(F)C2)cc2c1C(c1cc(F)ccc1Cl)NC2=O)c1cc(F)cc(C(F)(F)F)c1 (centres unmarked) [Compound I-370],≤ 100
13,CS(=O)(=O)n1cc(-c2cc(NC(=O)c3cc(F)cc(C(F)(F)F)c3)c3c(c2)C(=O)N[C@@H]3c2cc(F)ccc2Cl)cn1 [Compound I-1995],500 to 1000
14,O=C1NC(c2cc(F)ccc2Cl)c2c(NC(=O)c3csc4cocc34)cccc21 (centres unmarked) [Compound I-2301],10000 to 100000
15,C[C@H]([C@@H]1C[C@@H](O)CN1C(=O)Nc1cccc2c1[C@H](c1cc(F)ccc1Cl)NC2=O)C(F)(F)F (racemic) [Compound I-2341],100 to 500
16,"O=C(Nc1cnc(N2CC(F)(F)C2)c2c1C(Cl)(c1cc(F)ccc1Cl)NC2=O)c1cc(F)cc(C(F)(F)F)c1 (centres unmarked) [Compound I-274, N-(1-Chloro-1-(2-chloro-5-fluorophenyl)-4-(3,3-difluoroazetidin-1-yl)-3-oxo-2,3-dihydro-1H-pyrrolo[3,4-c]pyridin-7-yl)-3-fluoro-5-(trifluoromethyl)benzamide]",1000 to 10000
17,O=C(Nc1cc(Br)cc2c1C(c1ccccc1Cl)NC2=O)c1cc(F)cc(C(F)(F)F)c1 (centres unmarked) [Compound I-394],100 to 500
18,Cc1ccc(F)cc1C1NC(=O)c2cccc(NC(=O)c3cc(F)cc(C(F)(F)F)c3)c21 (centres unmarked) [Compound I-281],100 to 500
19,O=C1NC(c2cc(F)ccc2Cl)c2c1cc(-c1ccc3ncnn3c1)cc2N1CCn2cc(C(F)(F)F)nc2C1 (centres unmarked) [Compound I-2039],10000 to 100000
20,"Cc1nccn1-c1cc(NC(=O)N2C[C@@](O)(C(F)(F)F)c3cc(F)ccc32)c2c(c1)C(=O)N[C@H]2c1cc(F)ccc1Cl (single isomer, unassigned) [Compound I-2663]",1000 to 10000
21,Cn1ccc(-c2cc(NC(=O)c3cc(F)cc(Cl)c3)c3c(n2)C(=O)NC3c2cc(F)ccc2Cl)cc1=O (centres unmarked) [Compound I-499],100 to 500
22,N#Cc1ccc(-c2cc(NC(=O)c3cc(F)cc(C(F)(F)F)c3)c3c(c2)C(=O)N[C@H]3c2cc(F)ccc2Cl)cn1 [Compound I-996],500 to 1000

row,Compound,IC50 [nM]
1,"O=C1N[C@@H](c2cc(F)ccc2Cl)c2c(NC(=O)N3C[C@@](O)(C(F)(F)F)c4cc(F)ccc43)ccnc21 (single isomer, unassigned) [Compound I-2700]",1000 to 10000
2,O=C(Nc1cc(NC2COC2)cc2c1[C@@H](c1cc(F)ccc1Cl)NC2=O)c1cc(F)cc(C(F)(F)F)c1 [Compound I-830],1000 to 10000
3,Cc1ccccc1[C@H]1NC(=O)c2cc(C(=O)NCC(F)F)cc(NC(=O)c3nsc4ccccc34)c21 [Compound I-165],100 to 500
4,O=C(Nc1cccc2c1[C@@H](C1CCC(F)(F)CC1)NC2=O)c1cc(F)cc(C(F)(F)F)c1 [Compound I-2072],10000 to 100000
5,O=C(Nc1cc(-c2csc(C(=O)O)n2)cc2c1C(c1cc(F)ccc1Cl)NC2=O)c1cc(F)cc(C(F)(F)F)c1 (centres unmarked) [Compound I-1201],≤ 100
6,CC(=O)N1CCCCC1C1NC(=O)c2cccc(NC(=O)c3cc(F)cc(C(F)(F)F)c3)c21 (centres unmarked) [Compound I-1674],10000 to 100000
7,O=C(Nc1cc(CC2(CO)COC2)cc2c1C(c1cc(F)ccc1Cl)NC2=O)c1cc(F)cc(C(F)(F)F)c1 (centres unmarked) [Compound I-1339],≤ 100
8,O=C1NC(c2cc(F)ccc2Cl)c2c(NC(=O)n3ncc4ccccc43)cccc21 (centres unmarked) [Compound I-2373],100 to 500
9,Cc1ccc(C(=O)Nc2cc(Br)cc3c2C(c2cc(F)ccc2Cl)NC3=O)cc1 (centres unmarked) [Compound I-519],10000 to 100000
10,CC(C)n1cc(-c2cc(NC(=O)c3cc(F)cc(C(F)(F)F)c3)c3c(n2)C(=O)N[C@H]3c2cc(F)ccc2Cl)ccc1=O [Compound I-651],≤ 100
11,O=C(Nc1cc(Br)cc2c1C(c1cc(F)ccc1Cl)NC2=O)c1cc(Cl)ccc1Cl (centres unmarked) [Compound I-795],1000 to 10000
12,O=C1NC(c2cc(F)ccc2Cl)c2c(Nc3ccc4ccccc4c3)cc(Br)cc21 (centres unmarked) [Compound I-1725],1000 to 10000
13,O=C(Nc1ccnc2c1C(c1cc(F)ccc1Cl)NC2=O)c1cc(F)cc(C(F)(F)F)c1 (centres unmarked) [Compound I-305],100 to 500
14,Cc1nc2cc(-c3cc(NC(=O)c4cc(F)cc(C(F)(F)F)c4)c4c(c3)C(=O)NC4c3cc(F)ccc3Cl)ccc2o1 (centres unmarked) [Compound I-1036],≤ 100
15,"O=C1N[C@@H](c2cc(F)ccc2Cl)c2c(NC(=O)N3C[C@@](O)(C(F)F)c4cc(F)ccc43)cccc21 (single isomer, unassigned) [Compound I-2555]",1000 to 10000
16,O=C(Nc1cc(-c2cnc3nccn3c2)cc2c1[C@@H](c1cc(F)ccc1Cl)NC2=O)c1cc(F)cc(C(F)(F)F)c1 [Compound I-883],1000 to 10000
17,O=C(Nc1cc(-c2ccc3nc(Cl)nn3c2)cc2c1[C@@H](c1cc(F)ccc1Cl)NC2=O)c1cc(F)cc(C(F)(F)F)c1 [Compound I-1692],1000 to 10000
18,O=C(Nc1cc(-c2cnn(C(F)F)c2)cc2c1C(c1cc(F)ccc1Cl)NC2=O)c1cc(F)cc(Cl)c1 (centres unmarked) [Compound I-1863],≤ 100
19,COc1cc(-c2ccc3ncnn3c2)cc2c1C(c1cc(F)ccc1Cl)NC2=O (centres unmarked) [Compound I-1973],10000 to 100000
20,O=C1NC(c2cc(F)ccc2Cl)c2c(NC(=O)N3CCCCCC3)cc(Br)cc21 (centres unmarked) [Compound I-577],10000 to 100000
21,O=C(Nc1cc(-c2cnn(C(F)F)c2)cc2c1C(c1cc(F)ccc1Cl)NC2=O)c1cc(F)cc(C(F)(F)F)c1 (centres unmarked) [Compound I-1657],≤ 100
22,Cc1ccc2c(c1)CCN2C(=O)Nc1cccc2c1C(c1cc(F)ccc1Cl)NC2=O (centres unmarked) [Compound I-2440],10000 to 100000
